Results: ChEMBL document CHEMBL5465560, “Selectivity Literature for EUbOPEN Chemogenomic Library” (2024)

Experiments:
[1] = biological target: T1, Discoidin domain-containing receptor 2 (Homo sapiens) (UniProt Q16832); assay: Selectivity interaction (KinomeScan (DiscoverX)) EUB0000045b DDR2
T1 sequence (whole entry): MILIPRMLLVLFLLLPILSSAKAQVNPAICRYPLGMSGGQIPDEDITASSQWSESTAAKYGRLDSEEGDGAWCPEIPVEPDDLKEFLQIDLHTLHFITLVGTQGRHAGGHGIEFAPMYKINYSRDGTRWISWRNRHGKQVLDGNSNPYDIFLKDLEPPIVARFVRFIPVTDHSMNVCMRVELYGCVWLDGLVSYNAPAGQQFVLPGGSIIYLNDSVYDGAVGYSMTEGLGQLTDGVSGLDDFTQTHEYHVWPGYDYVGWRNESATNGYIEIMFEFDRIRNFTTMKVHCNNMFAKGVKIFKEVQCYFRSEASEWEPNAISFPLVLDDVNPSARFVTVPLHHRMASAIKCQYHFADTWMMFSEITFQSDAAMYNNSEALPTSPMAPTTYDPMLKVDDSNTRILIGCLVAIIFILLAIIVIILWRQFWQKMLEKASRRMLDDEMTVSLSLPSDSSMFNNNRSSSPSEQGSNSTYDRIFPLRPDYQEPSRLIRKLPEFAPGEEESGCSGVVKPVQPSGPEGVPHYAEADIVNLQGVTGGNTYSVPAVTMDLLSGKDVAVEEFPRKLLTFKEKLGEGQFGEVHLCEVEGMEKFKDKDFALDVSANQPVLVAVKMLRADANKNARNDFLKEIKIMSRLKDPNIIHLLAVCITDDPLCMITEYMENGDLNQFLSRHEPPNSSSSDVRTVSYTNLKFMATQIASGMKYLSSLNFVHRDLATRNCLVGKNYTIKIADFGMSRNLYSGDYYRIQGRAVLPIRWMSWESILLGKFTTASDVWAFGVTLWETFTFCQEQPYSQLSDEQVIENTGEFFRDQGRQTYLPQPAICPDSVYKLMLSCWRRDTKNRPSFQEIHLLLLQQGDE

[2] = biological target: Serine/threonine-protein kinase Nek6 (Homo sapiens) (UniProt Q9HC98); assay: Selectivity interaction (KinomeScan (DiscoverX)) EUB0001079a NEK6; conditions: at 1 µM
[3] = biological target: Serine/threonine-protein kinase MRCK gamma (Homo sapiens) (UniProt Q6DT37); assay: Selectivity interaction (Kinase panel (Z-LYTE Assay)) EUB0001632a CDC42BPG; conditions: at 10 µM
[4] = biological target: T2, Serine/threonine-protein kinase NLK (Homo sapiens) (UniProt Q9UBE8); assay: Selectivity interaction (ProQinase) EUB0000171b NLK
T2 sequence (whole entry): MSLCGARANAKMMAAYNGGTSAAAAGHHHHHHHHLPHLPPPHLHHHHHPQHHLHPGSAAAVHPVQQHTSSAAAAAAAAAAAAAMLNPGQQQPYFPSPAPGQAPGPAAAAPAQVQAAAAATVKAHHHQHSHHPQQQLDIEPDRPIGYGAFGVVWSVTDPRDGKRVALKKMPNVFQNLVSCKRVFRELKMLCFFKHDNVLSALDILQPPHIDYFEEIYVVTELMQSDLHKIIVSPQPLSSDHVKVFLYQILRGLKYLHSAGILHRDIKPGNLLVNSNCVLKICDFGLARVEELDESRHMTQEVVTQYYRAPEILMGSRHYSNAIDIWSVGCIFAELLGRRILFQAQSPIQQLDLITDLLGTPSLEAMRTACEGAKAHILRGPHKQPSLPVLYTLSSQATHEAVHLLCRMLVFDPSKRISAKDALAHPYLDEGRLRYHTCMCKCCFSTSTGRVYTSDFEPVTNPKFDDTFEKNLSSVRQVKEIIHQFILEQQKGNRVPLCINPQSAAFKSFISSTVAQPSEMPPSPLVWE

[5] = biological target: Tyrosine-protein kinase ABL2 (Homo sapiens, UniProt P42684); assay: Selectivity interaction (Kinase panel (Invitrogen)) EUB0000639a ABL2; conditions: at 200 nM
[6] = biological target: T3, Serine/threonine-protein kinase TAO3 (Homo sapiens) (UniProt Q9H2K8); assay: Selectivity interaction (Kinase panel (Invitrogen)) EUB0000639a TAOK3; conditions: at 200 nM
T3 sequence (whole entry): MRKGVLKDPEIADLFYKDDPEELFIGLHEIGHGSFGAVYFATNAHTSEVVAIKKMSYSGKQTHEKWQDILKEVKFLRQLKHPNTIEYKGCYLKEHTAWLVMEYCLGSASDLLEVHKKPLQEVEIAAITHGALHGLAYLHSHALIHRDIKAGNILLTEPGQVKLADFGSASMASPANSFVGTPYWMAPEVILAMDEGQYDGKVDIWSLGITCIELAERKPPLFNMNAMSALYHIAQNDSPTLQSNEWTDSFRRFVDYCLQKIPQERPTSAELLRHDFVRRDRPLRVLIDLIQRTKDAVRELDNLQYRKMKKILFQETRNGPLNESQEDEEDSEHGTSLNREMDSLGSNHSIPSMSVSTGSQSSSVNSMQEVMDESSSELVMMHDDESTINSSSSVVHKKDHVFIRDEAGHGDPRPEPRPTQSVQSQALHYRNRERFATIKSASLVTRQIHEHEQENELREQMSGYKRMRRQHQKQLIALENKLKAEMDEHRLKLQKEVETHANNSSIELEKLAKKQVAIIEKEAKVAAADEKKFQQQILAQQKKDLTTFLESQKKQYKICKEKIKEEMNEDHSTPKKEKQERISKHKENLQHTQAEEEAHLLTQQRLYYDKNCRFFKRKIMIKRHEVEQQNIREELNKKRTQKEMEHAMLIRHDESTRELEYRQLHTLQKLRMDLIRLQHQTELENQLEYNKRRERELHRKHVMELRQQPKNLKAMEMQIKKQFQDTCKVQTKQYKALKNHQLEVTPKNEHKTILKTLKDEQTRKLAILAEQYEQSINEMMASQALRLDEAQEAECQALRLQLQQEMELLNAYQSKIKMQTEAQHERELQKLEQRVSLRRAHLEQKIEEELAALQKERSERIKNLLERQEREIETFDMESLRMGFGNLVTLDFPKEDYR

[7] = biological target: Serine/threonine-protein kinase tousled-like 2 (Homo sapiens) (UniProt Q86UE8); assay: Selectivity interaction (ActivX KiNativ screen (kinase selectivity in THP-1 cell lysates)) EUB0000639a TLK2; type: subcellular; conditions: lysate, at 5 µM
[8] = biological target: STE20-like serine/threonine-protein kinase (Homo sapiens, UniProt Q9H2G2); assay: Selectivity interaction (KinomeScan (DiscoverX)) EUB0000655a SLK; conditions: at 10 µM
STE20-like serine/threonine-protein kinase, sequence (Q9H2G2 whole entry, looked up): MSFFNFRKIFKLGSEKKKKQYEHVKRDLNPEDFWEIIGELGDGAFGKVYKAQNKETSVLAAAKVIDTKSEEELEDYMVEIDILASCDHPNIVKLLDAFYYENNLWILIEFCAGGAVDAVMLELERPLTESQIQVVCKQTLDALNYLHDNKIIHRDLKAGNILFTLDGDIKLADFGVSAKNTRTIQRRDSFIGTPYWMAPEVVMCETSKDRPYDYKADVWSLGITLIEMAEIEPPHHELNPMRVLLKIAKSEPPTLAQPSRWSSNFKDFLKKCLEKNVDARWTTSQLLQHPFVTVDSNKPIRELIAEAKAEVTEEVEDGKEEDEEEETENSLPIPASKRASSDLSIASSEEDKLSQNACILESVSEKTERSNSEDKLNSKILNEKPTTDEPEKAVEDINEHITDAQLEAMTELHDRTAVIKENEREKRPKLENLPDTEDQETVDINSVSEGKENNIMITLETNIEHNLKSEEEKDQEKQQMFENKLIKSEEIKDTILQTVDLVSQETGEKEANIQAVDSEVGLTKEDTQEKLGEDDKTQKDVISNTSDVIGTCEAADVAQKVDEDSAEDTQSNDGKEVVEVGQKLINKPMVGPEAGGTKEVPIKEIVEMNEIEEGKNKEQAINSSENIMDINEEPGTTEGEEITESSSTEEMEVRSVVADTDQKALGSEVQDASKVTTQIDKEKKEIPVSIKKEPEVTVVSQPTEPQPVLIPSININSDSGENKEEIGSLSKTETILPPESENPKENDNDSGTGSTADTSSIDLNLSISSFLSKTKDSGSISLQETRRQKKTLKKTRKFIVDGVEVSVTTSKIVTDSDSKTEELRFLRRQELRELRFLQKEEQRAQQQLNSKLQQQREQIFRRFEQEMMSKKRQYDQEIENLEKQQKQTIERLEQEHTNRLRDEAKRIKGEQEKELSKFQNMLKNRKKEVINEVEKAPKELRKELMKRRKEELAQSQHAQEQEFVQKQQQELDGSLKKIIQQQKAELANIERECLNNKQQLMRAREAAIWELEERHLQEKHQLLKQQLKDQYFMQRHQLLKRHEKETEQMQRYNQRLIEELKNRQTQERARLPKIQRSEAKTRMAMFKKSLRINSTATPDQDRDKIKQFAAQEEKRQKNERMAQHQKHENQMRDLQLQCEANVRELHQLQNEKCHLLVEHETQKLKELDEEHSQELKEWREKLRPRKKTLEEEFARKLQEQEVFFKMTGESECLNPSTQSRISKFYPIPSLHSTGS

Serine/threonine-protein kinase Nek6 (Homo sapiens), sequence (Q9HC98 whole entry): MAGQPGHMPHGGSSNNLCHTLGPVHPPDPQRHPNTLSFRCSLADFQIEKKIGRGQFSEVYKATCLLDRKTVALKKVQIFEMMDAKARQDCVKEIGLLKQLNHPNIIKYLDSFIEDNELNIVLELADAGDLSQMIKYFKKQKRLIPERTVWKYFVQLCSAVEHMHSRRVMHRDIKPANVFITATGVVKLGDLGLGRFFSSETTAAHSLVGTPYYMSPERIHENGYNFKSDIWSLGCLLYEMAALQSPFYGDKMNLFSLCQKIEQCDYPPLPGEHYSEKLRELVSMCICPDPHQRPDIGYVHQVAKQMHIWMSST
Tyrosine-protein kinase ABL2, sequence (P42684 whole entry): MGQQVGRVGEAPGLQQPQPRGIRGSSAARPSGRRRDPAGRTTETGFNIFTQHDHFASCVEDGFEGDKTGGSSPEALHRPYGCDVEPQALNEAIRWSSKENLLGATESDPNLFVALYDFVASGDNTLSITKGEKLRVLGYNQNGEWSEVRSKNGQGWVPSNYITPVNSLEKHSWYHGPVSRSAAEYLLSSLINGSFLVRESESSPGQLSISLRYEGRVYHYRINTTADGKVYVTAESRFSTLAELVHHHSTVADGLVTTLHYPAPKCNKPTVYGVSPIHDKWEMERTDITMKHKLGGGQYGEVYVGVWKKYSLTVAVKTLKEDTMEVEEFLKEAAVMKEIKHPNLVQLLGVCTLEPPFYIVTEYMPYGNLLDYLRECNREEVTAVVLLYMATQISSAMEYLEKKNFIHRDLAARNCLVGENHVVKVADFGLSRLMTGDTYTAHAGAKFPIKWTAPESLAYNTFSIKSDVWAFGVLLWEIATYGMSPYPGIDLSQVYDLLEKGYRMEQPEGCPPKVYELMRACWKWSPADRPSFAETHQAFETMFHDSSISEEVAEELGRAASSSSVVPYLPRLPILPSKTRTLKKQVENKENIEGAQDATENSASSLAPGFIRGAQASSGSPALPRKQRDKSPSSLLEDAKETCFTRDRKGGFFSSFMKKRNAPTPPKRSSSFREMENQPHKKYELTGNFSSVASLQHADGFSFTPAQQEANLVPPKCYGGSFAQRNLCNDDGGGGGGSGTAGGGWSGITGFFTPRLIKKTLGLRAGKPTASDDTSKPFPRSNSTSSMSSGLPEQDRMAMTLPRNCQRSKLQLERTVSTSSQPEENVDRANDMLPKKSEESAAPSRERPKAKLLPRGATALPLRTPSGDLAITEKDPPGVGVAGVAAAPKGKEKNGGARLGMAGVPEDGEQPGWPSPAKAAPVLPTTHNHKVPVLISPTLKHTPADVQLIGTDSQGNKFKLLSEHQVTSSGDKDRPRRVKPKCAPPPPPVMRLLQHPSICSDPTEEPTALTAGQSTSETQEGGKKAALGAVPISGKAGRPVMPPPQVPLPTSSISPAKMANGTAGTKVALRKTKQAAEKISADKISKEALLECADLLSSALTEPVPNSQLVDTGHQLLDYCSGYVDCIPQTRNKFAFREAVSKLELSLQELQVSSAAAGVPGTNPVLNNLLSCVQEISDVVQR
Serine/threonine-protein kinase MRCK gamma (Homo sapiens), sequence (Q6DT37 whole entry): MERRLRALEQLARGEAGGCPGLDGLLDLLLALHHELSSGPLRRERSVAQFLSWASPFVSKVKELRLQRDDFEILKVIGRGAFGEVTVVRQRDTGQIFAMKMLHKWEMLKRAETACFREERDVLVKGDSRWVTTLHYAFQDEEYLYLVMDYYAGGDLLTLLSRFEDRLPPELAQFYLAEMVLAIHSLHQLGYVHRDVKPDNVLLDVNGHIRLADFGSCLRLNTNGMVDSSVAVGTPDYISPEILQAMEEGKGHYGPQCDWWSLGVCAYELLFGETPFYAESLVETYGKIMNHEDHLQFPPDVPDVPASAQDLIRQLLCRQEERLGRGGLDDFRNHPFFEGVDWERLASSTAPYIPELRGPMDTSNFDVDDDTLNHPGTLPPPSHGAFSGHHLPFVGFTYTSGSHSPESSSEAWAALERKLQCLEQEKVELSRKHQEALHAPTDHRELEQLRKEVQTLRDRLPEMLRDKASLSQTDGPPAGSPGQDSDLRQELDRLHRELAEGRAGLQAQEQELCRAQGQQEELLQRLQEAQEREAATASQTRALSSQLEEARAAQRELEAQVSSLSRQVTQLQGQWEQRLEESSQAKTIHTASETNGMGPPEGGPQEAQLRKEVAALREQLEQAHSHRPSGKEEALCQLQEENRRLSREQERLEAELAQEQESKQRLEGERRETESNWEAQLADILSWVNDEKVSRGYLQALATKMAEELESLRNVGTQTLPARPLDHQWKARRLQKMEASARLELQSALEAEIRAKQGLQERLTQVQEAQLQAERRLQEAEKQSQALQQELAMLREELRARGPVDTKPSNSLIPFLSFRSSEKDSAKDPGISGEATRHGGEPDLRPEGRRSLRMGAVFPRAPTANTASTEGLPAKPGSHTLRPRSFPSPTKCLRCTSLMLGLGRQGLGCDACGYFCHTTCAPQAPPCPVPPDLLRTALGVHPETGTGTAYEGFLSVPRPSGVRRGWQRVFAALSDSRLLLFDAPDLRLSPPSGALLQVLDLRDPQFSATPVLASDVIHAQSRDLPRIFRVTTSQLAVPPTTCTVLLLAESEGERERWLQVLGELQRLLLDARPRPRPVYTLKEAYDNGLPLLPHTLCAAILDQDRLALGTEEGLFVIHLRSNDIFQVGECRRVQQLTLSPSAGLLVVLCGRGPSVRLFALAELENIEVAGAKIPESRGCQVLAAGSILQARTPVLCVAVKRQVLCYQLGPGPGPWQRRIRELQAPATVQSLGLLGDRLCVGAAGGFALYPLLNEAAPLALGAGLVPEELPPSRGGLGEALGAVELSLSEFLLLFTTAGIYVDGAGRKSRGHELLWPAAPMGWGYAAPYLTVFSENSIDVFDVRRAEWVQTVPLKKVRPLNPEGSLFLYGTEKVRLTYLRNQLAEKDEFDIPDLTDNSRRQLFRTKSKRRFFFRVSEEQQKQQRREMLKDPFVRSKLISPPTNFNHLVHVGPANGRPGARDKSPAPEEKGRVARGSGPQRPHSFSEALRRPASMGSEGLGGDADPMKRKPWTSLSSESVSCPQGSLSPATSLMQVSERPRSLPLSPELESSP
Serine/threonine-protein kinase tousled-like 2 (Homo sapiens), sequence (Q86UE8 whole entry, looked up): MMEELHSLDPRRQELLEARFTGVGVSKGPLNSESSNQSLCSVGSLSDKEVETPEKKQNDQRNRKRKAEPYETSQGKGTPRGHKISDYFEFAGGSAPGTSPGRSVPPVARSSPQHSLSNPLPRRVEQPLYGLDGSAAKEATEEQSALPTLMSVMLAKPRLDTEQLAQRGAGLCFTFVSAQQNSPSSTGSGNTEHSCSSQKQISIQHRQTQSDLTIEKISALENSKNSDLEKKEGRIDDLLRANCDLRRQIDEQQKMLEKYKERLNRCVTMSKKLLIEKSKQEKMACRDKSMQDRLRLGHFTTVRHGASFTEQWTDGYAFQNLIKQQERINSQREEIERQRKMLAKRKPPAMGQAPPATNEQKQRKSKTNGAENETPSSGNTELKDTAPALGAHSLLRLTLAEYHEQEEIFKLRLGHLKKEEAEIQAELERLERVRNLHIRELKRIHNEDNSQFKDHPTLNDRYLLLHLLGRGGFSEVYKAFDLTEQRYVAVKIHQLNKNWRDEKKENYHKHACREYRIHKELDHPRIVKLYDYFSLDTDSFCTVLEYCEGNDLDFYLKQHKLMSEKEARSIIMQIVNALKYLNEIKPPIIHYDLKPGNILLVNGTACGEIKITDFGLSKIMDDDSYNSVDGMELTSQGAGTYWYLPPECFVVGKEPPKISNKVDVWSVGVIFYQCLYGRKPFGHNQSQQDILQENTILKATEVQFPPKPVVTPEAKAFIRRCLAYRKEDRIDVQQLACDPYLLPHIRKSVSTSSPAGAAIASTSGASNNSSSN

`C=CC(=O)Nc1cc(-n2c(=O)ccc3cnc4ccc(-c5ccc(NS(C)(=O)=O)cc5)cc4c32)ccc1C` showed a % of control ([1]; at 1 µM) of 100% and a % of control ([1]; at 10 µM) of 100%.
`Nc1cnc(N2CCc3cc(S(=O)(=O)Nc4c(F)cc(Cl)cc4F)cc(N4CCCC4=O)c32)nc1` [TP-020n] gave a % of control [2] of 100%.
For `Cn1cc(-n2cnc3c(NCc4nc5cc(Cl)c(Cl)cc5[nH]4)nc(N4CCOCC4)nc32)cn1`, the % of control [3] was 2.69%.
Work on `C=CC(=O)Nc1cccc(C(=O)Nc2ccc(Nc3cc(-c4[nH]c(SC)nc4C)ccn3)cc2)c1` yielded a % of control ([4]; at 1 µM) of 86% and a % of control ([4]; at 5 µM) of 37%.
`CC[C@@H]1[C@H](F)C(=O)N[C@@H]1COc1nccc2cc(C(N)=O)c(OC)cc12` [ZIMLOVISERTIB] was tested, and the % of inhibition [5] was -0.467%, the % of inhibition [6] was -1.02% and the % of inhibition [7] was 80.5%.
`CN(C)CCOc1ccc(-c2nc(-c3ccncc3)c(-c3ccc4c(c3)CC/C4=N\O)[nH]2)cc1` gave a % of control [8] of 1.3%.
